{"source": "PubChem BioAssay (NCI)", "experiment_in_all_cases": "DTP human tumour cell line panel, 48 h", "key": {"[1]": {"tested_on": "NCI-H23 lung"}, "[2]": {"tested_on": "ACHN renal"}, "[3]": {"tested_on": "LOX IMVI melanoma"}, "[4]": {"tested_on": "HCC-2998 colon"}, "[5]": {"tested_on": "HOP-92 NSCLC"}, "[6]": {"tested_on": "SN12C renal"}, "[7]": {"tested_on": "EKVX NSCLC"}, "[8]": {"tested_on": "SF-268 CNS"}, "[9]": {"tested_on": "CCRF-CEM leukemia"}, "[10]": {"tested_on": "SF-539 CNS"}, "[11]": {"tested_on": "NCI-H522 lung"}, "[12]": {"tested_on": "MOLT-4 leukemia"}, "[13]": {"tested_on": "SF-295 CNS"}, "[14]": {"tested_on": "NCI-H460 lung"}, "[15]": {"tested_on": "KM12 colon"}, "[16]": {"tested_on": "786-0 renal"}, "[17]": {"tested_on": "IGROV1 ovarian"}, "[18]": {"tested_on": "DMS 114 small cell lung"}, "[19]": {"tested_on": "A549 NSCLC"}, "[20]": {"tested_on": "OVCAR-5 ovarian"}, "[21]": {"tested_on": "COLO 205 colon"}, "[22]": {"tested_on": "SK-MEL-2 melanoma"}, "[23]": {"tested_on": "UACC-62 melanoma"}, "[24]": {"tested_on": "HCT-15 colon"}, "[25]": {"tested_on": "NCI-H226 lung"}, "[26]": {"tested_on": "KM20L2 colon"}, "[27]": {"tested_on": "HT29 colon"}, "[28]": {"tested_on": "SR leukemia"}, "[29]": {"tested_on": "DMS 273 small cell lung"}, "[30]": {"tested_on": "A498 renal"}, "[31]": {"tested_on": "SW-620 colon"}, "[32]": {"tested_on": "HL-60(TB) leukemia"}, "[33]": {"tested_on": "K-562 leukemia"}, "[34]": {"tested_on": "SK-OV-3 ovarian"}, "[35]": {"tested_on": "M14 melanoma"}, "[36]": {"tested_on": "RXF 393 renal"}, "[37]": {"tested_on": "DLD-1 colon"}, "[38]": {"tested_on": "TK-10 renal"}, "[39]": {"tested_on": "UO-31 renal"}, "[40]": {"tested_on": "RXF-631 renal"}, "[41]": {"tested_on": "MALME-3M melanoma"}, "[42]": {"tested_on": "HOP-18 NSCLC"}, "[43]": {"tested_on": "SK-MEL-28 melanoma"}, "[44]": {"tested_on": "SNB-19 CNS"}, "[45]": {"tested_on": "M19-MEL melanoma"}, "[46]": {"tested_on": "CAKI-1 renal"}, "[47]": {"tested_on": "LXFL 529 NSCLC"}, "[48]": {"tested_on": "OVCAR-3 ovarian"}, "[49]": {"tested_on": "OVCAR-4 ovarian"}, "[50]": {"tested_on": "SNB-75 CNS"}, "[51]": {"tested_on": "XF 498 CNS"}, "[52]": {"tested_on": "SNB-78 CNS"}, "[53]": {"tested_on": "HCT-116 colon"}, "[54]": {"tested_on": "U251 CNS"}, "[55]": {"tested_on": "HOP-62 NSCLC"}, "[56]": {"tested_on": "OVCAR-8 ovarian"}, "[57]": {"tested_on": "SK-MEL-5 melanoma"}}, "note": "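Exposure lasted 48 hours, with cells grown in 96-well plates and compounds tested at five concentrations. At the TGI there is no net growth.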", "data": [{"smiles": "CCS(CC)(CC)CC1CCCC2=CCC(P(=O)(c3ccccc3)c3ccccc3)CC21", "note": "(configuration not stated)", "values": [{"measurement": "TGI", "setting": "[1]", "value": 25.6, "unit": "µM"}, {"measurement": "TGI", "setting": "[2]", "value": 22.4, "unit": "µM"}, {"measurement": "TGI", "setting": "[3]", "value": 34.9, "unit": "µM"}, {"measurement": "TGI", "setting": "[4]", "value": 22, "unit": "µM"}, {"measurement": "TGI", "setting": "[5]", "value": 16.4, "unit": "µM"}, {"measurement": "TGI", "setting": "[6]", "value": 26.3, "unit": "µM"}, {"measurement": "TGI", "setting": "[7]", "value": 28.4, "unit": "µM"}, {"measurement": "TGI", "setting": "[8]", "value": 26.1, "unit": "µM"}, {"measurement": "TGI", "setting": "[9]", "value": 31, "unit": "µM"}, {"measurement": "TGI", "setting": "[10]", "value": 27.3, "unit": "µM"}, {"measurement": "TGI", "setting": "[11]", "value": 25.5, "unit": "µM"}, {"measurement": "TGI", "setting": "[12]", "value": 25.2, "unit": "µM"}, {"measurement": "TGI", "setting": "[13]", "value": 16.3, "unit": "µM"}, {"measurement": "TGI", "setting": "[14]", "value": 24.8, "unit": "µM"}, {"measurement": "TGI", "setting": "[15]", "value": 30.6, "unit": "µM"}, {"measurement": "TGI", "setting": "[16]", "value": 26.1, "unit": "µM"}, {"measurement": "TGI", "setting": "[17]", "value": 28.1, "unit": "µM"}, {"measurement": "TGI", "setting": "[18]", "value": 24.8, "unit": "µM"}, {"measurement": "TGI", "setting": "[19]", "value": 18, "unit": "µM"}, {"measurement": "TGI", "setting": "[20]", "value": 30.4, "unit": "µM"}, {"measurement": "TGI", "setting": "[21]", "value": 37.4, "unit": "µM"}, {"measurement": "TGI", "setting": "[22]", "value": 33.8, "unit": "µM"}, {"measurement": "TGI", "setting": "[23]", "value": 13.5, "unit": "µM"}, {"measurement": "TGI", "setting": "[24]", "value": 21.8, "unit": "µM"}, {"measurement": "TGI", "setting": "[25]", "value": 39.6, "unit": "µM"}, {"measurement": "TGI", "setting": "[26]", "value": 25.2, "unit": "µM"}, {"measurement": "TGI", "setting": "[27]", "value": 22.8, "unit": "µM"}, {"measurement": "TGI", "setting": "[28]", "value": 25.5, "unit": "µM"}, {"measurement": "TGI", "setting": "[29]", "value": 26.4, "unit": "µM"}, {"measurement": "TGI", "setting": "[30]", "value": 28, "unit": "µM"}, {"measurement": "TGI", "setting": "[31]", "value": 31.5, "unit": "µM"}, {"measurement": "TGI", "setting": "[32]", "value": 12.3, "unit": "µM"}, {"measurement": "TGI", "setting": "[33]", "value": 39.9, "unit": "µM"}, {"measurement": "TGI", "setting": "[34]", "value": 28.7, "unit": "µM"}, {"measurement": "TGI", "setting": "[35]", "value": 25.6, "unit": "µM"}, {"measurement": "TGI", "setting": "[36]", "value": 23.2, "unit": "µM"}, {"measurement": "TGI", "setting": "[37]", "value": 28.7, "unit": "µM"}, {"measurement": "TGI", "setting": "[38]", "value": 27, "unit": "µM"}, {"measurement": "TGI", "setting": "[39]", "value": 20.3, "unit": "µM"}, {"measurement": "TGI", "setting": "[40]", "value": 31.5, "unit": "µM"}, {"measurement": "TGI", "setting": "[41]", "value": 40, "unit": "µM"}, {"measurement": "TGI", "setting": "[42]", "value": 40.3, "unit": "µM"}, {"measurement": "TGI", "setting": "[43]", "value": 28.4, "unit": "µM"}, {"measurement": "TGI", "setting": "[44]", "value": 29, "unit": "µM"}, {"measurement": "TGI", "setting": "[45]", "value": 36.5, "unit": "µM"}, {"measurement": "TGI", "setting": "[46]", "value": 24.4, "unit": "µM"}, {"measurement": "TGI", "setting": "[47]", "value": 22.4, "unit": "µM"}, {"measurement": "TGI", "setting": "[48]", "value": 30.5, "unit": "µM"}, {"measurement": "TGI", "setting": "[49]", "value": 26, "unit": "µM"}, {"measurement": "TGI", "setting": "[50]", "value": 25.4, "unit": "µM"}, {"measurement": "TGI", "setting": "[51]", "value": 17.4, "unit": "µM"}, {"measurement": "TGI", "setting": "[52]", "value": 37.1, "unit": "µM"}, {"measurement": "TGI", "setting": "[53]", "value": 20.7, "unit": "µM"}, {"measurement": "TGI", "setting": "[54]", "value": 23.1, "unit": "µM"}, {"measurement": "TGI", "setting": "[55]", "value": 32, "unit": "µM"}, {"measurement": "TGI", "setting": "[56]", "value": 31.4, "unit": "µM"}, {"measurement": "TGI", "setting": "[57]", "value": 29.8, "unit": "µM"}]}]}
